Laboratory results published in US11229224B2, “Phytochemical compositions used as disinfectants and food preservatives” (priority 2012, dated 2022).

Experiments:
[1] = test system: S. Montevideo; details: 500 μl AITC; cited from earlier work
[2] = test system: native flora of soybeans; test: Total count in non-inoculated soybean seed after disinfection; type: cell-based
Method: (§1) A comparison between the activity of aqueous extract and that of hypochlorite (1,000 and 10,000 ppm) was performed in non-inoculated seed. A total count was carried out in all cases.

[3] = test system: native flora of alfalfa; test: Total count in non-inoculated alfalfa seed after disinfection; type: cell-based
Method: as §1

[4] = test system: Salmonella sp; details: submerging sprouts into 100 and 200 ppm hypochlorite solutions; cited from earlier work
[5] = test system: soybean seeds; test: Toxic effect on seed germination (FIGS. 1 to 6); type: in vivo, soybean seeds (Vigna radiata L)
Method: Therefore, a study comparing the toxic effect of hypochlorite (1,000 and 10,000 ppm), hibiscus vegetal extract and acetic acid was performed, yielding the results shown in FIGS. 1 to 6.

[6] = test system: most pathogens; details: in food; cited from earlier work
[7] = test system: almost all flora; details: in food, within reasonable elevated limits of initial load; cited from earlier work
[8] = test system: toxigenic fungus; details: in food; cited from earlier work
[9] = test system: S. sonnei; test: Diffusion technique, inhibition zone on agar; type: cell-based, Shigella sonnei; details: 1:10 dilution of aqueous hibiscus extract, 10 μL on plate, 35±1° C., 24 h
Method: (§2) This procedure was repeated twice. […] Finally, each strain was 10-fold diluted with ISS.
(§3) 100 μL from the first dilution of the respective pathogen culture were inoculated in AST plates. Inoculum was completely distributed on agar surface by the surface extension technique. From the dry extract, a 10% solution of hibiscus calyxes was prepared with distilled water. 10 μL aliquots of this extract were placed on each inoculated plate. Four repetitions were carried out. After the extract was absorbed by agar the plates were incubated at 35±1° C. for 24 h. Finally, the diameter of each inhibition zone was measured on the inoculated surface.

[10] = test system: E. coli; test: Diffusion technique, inhibition zone on agar; type: cell-based, Escherichia coli; details: 1:10 dilution of aqueous hibiscus extract, 10 μL on plate, 35±1° C., 24 h
Method: as §2, §3

[11] = test system: Enteroinvasive E. coli; test: Diffusion technique, inhibition zone on agar; type: cell-based, Escherichia coli; details: 1:10 dilution of aqueous hibiscus extract, 10 μL on plate, 35±1° C., 24 h
Method: as §2, §3

[12] = test system: Enterapathogenic E. coli; test: Diffusion technique, inhibition zone on agar; type: cell-based, Escherichia coli; details: 1:10 dilution of aqueous hibiscus extract, 10 μL on plate, 35±1° C., 24 h
Method: as §2, §3

[13] = test system: Enterotoxigenic E. coli; test: Diffusion technique, inhibition zone on agar; type: cell-based, Escherichia coli; details: 1:10 dilution of aqueous hibiscus extract, 10 μL on plate, 35±1° C., 24 h
Method: as §2, §3

[14] = test system: P. aeruginosa; test: Diffusion technique, inhibition zone on agar; type: cell-based, Pseudomonas aeruginosa; details: 1:10 dilution of aqueous hibiscus extract, 10 μL on plate, 35±1° C., 24 h
Method: as §2, §3

[15] = test system: V. cholerae O1; test: Diffusion technique, inhibition zone on agar; type: cell-based, Vibrio cholerae O1; details: 1:10 dilution of aqueous hibiscus extract, 10 μL on plate, 35±1° C., 24 h
Method: as §2, §3

[16] = test system: S. flexneri; test: Diffusion technique, inhibition zone on agar; type: cell-based, Shigella flexneri; details: 1:10 dilution of aqueous hibiscus extract, 10 μL on plate, 35±1° C., 24 h
Method: as §2, §3

[17] = test system: S. typhimurium; test: Diffusion technique, inhibition zone on agar; type: cell-based, Salmonella typhimurium; details: 1:10 dilution of aqueous hibiscus extract, 10 μL on plate, 35±1° C., 24 h
Method: as §2, §3

[18] = test system: S. choleraesuis; test: Diffusion technique, inhibition zone on agar; type: cell-based, Salmonella choleraesuis; details: 1:10 dilution of aqueous hibiscus extract, 10 μL on plate, 35±1° C., 24 h
Method: as §2, §3

[19] = test system: L. monocytogenes; test: Diffusion technique, inhibition zone on agar; type: cell-based, Listeria monocytogenes; details: 1:10 dilution of aqueous hibiscus extract, 10 μL on plate, 35±1° C., 24 h
Method: as §2, §3

[20] = test system: S. aureus; test: Diffusion technique, inhibition zone on agar; type: cell-based, Staphylococcus aureus; details: 1:10 dilution of aqueous hibiscus extract, 10 μL on plate, 35±1° C., 24 h
Method: as §2, §3

[21] = Table 8, hypochlorite 1,000 ppm
[22] = Table 10, hypochlorite 10,000 ppm
[23] = Table 9, hypochlorite 1,000 ppm
[24] = Table 11, hypochlorite 10,000 ppm

C=CCN=C=S [AITC]
decrease of S. Montevideo on tomato cuticle [1]: 8 Log

OCl [Hypochlorite, sodium hypochlorite]
% of decrease [2, 21]: 6.95%
Decrease [2, 21]: 0.18 Log10 CFU/g
Final concentration ([2]; Table 8, hypochlorite 1,000 ppm, initial 2.59 ± 1.19, N = 3): 2.41 ± 1.08 Log10 CFU/g
% of decrease [2, 22]: 17.31%
Decrease [2, 22]: 0.40 Log10 CFU/g
Final concentration ([2]; Table 10, hypochlorite 10,000 ppm, initial 2.31 ± 0.89, N = 3): 1.91 ± 1.23 Log10 CFU/g
% of decrease [3, 23]: 6.95%
Decrease [3, 23]: 0.18 Log10 CFU/g
Final concentration ([3]; Table 9, hypochlorite 1,000 ppm, initial 3.59, N = 3): 3.41 ± 0.38 Log10 CFU/g
% of decrease [3, 24]: 17.31%
Decrease [3, 24]: 0.40 Log10 CFU/g
Final concentration ([3]; Table 11, hypochlorite 10,000 ppm, initial 3.30-3.31, N = 3): 2.9 ± 0.56 Log10 CFU/g
reduction of Salmonella sp in sprouts [4]: 1 Log10
structural damage of seeds ([5]; FIGS. 2 and 4): structural damage
decrease of the sprout yield ([5]; hypochlorite, FIG. 4 (10,000 ppm sodium hypochlorite solution)): 87.63%

CC(=O)O [acetic acid]
concentration that acts on most pathogens [6]: 0.1%
concentration that inhibits almost all flora [7]: 1-2%
concentration that has effects on toxigenic fungus [8]: 0.5%

penicillin
Inhibition diameter [9]: 14 mm
Inhibition diameter [10]: 13 mm
Inhibition diameter [11]: 12 mm
Inhibition diameter [12]: 11 mm
Inhibition diameter [13]: 12 mm
Inhibition diameter [14]: 13 mm
Inhibition diameter [15]: 13 mm
Inhibition diameter [16]: 12 mm
Inhibition diameter [17]: 15 mm
Inhibition diameter [18]: 12 mm
Inhibition diameter [19]: 12 mm
Inhibition diameter [20]: 13 mm
